Assay results as given in patent publication US20030125287A1, “Antisense oligonucleotides and methods to induce tumor cell death” (Hybridon, Inc., priority 2001, published 2003).
Oligonucleotides are written 5' to 3', each unit as a sugar letter and its base; * is a phosphorothioate linkage, no mark a phosphodiester; rarer units and linkages stand in square brackets, end groups in braces. Plain capitals give the bases only. d = 2'-deoxy (DNA)

Tested on: XIAP
Details: MSN cells; 400 nM; 48 hours (FIG. 10A)
Experimental: MSN cells were treated with lipofectin or 400 nM survivin antisense oligonucleotides 900, 901, 903, 904, 905 and 906. Total protein was isolated 48 hours after treatment, and 100 μg of protein was loaded per lane. The blot was incubated with a monoclonal antibody against XIAP (1:1000; IgG1). Visualization was by enhanced chemiluminescence (ECL). […] The experiment was performed twice.
Total protein homogenates were prepared according to a previously described procedure (Albala et al. (1995) J. Neurochem. 64:2480-2490). Protein content was measured using the Bio-Rad detection system (Bio-Rad Laboratories, Hercules, Calif.). Equal amounts of protein were analyzed by SDS-PAGE on 10% gels (Laemmli (1970) Nature 227:680-685). The resolved polypeptides were electrophoretically transferred to nitrocellulose (Towbin et al. (1979) Proc. Natl. Acad. Sci. USA 76:4350-4354).
Survivin polyclonal antibody was purchased from R & D Systems, Inc. (Minneapolis, Minn.). […] A generic β-tubulin monoclonal antibody (TUB 2.1) was purchased from SIGMA (St. Louis, Mo.). The XIAP mAb was purchased from StressGen Biotechnologies Corp. (Victoria, Canada). The poly-ADP ribosyl polymerase (PARP) mAb was purchased from PharMingen/Transduction Laboratories (San Diego, Calif.).

## d(GCTTCCCAGTCACATCCTGT) (antisense dG*dC*dT*dT*dC*dC*dC*dA*dG*dT*dC*dA*dC*dA*dT*dC*dC*dT*dG*dT) [Oligo 906]
  fold change of XIAP protein over β-tubulin relative to lipofectin: 8.3 fold
